Holding throughout (assay type): biochemical
One experiment deals with JAK2 (Homo sapiens, UniProt O60674). In words: JAK2 Inhibition Assay. Particulars: 15 μM poly(Glu)4Tyr, 12 μM ATP; read-out: JAK2 enzyme inhibition (Ki). The procedure:
(§1) Compounds were screened for their ability to inhibit JAK using the […] below. Reactions were carried out in a kinase buffer containing 100 mM HEPES (pH 7.4), 1 mM DTT, 10 mM MgCl2, 25 mM NaCl, and 0.01% BSA.
(§2) Substrate concentrations in the assay were 5 μM ATP (200 uCi/μmole ATP) 1 μM poly(Glu)4Tyr. Reactions were carried out at 25 ° C. and 1 nM JAK3.
(§3) To each well of a 96 well polycarbonate plate was added 1.5 μl of a JAK3 inhibitor along with 50 μl of kinase buffer containing 2 μM poly(Glu)4Tyr and 10 μM ATP. This was then mixed and 50 μl of kinase buffer 2 nM JAK3 enzyme was added to start the reaction. After 20 minutes at room temperature (25C), the reaction was stopped with 50 μl of 20% trichloroacetic acid (TCA) that also contained 0.4 mM ATP. The entire contents of each well were then transferred to a 96 well glass fiber filter plate using a TomTek Cell Harvester. After washing, 60 μl of scintillation fluid was added and ^33P incorporation detected on a Perkin Elmer TopCount.
As described above in Example 11 except that JAK-2 enzyme is used, the final poly(Glu)4Tyr concentration is 15 μM, and final ATP concentration is 12 μM.

For another experiment, the target named is T1, JAK3 (Homo sapiens, UniProt P52333).
T1 sequence (P52333 1-1124): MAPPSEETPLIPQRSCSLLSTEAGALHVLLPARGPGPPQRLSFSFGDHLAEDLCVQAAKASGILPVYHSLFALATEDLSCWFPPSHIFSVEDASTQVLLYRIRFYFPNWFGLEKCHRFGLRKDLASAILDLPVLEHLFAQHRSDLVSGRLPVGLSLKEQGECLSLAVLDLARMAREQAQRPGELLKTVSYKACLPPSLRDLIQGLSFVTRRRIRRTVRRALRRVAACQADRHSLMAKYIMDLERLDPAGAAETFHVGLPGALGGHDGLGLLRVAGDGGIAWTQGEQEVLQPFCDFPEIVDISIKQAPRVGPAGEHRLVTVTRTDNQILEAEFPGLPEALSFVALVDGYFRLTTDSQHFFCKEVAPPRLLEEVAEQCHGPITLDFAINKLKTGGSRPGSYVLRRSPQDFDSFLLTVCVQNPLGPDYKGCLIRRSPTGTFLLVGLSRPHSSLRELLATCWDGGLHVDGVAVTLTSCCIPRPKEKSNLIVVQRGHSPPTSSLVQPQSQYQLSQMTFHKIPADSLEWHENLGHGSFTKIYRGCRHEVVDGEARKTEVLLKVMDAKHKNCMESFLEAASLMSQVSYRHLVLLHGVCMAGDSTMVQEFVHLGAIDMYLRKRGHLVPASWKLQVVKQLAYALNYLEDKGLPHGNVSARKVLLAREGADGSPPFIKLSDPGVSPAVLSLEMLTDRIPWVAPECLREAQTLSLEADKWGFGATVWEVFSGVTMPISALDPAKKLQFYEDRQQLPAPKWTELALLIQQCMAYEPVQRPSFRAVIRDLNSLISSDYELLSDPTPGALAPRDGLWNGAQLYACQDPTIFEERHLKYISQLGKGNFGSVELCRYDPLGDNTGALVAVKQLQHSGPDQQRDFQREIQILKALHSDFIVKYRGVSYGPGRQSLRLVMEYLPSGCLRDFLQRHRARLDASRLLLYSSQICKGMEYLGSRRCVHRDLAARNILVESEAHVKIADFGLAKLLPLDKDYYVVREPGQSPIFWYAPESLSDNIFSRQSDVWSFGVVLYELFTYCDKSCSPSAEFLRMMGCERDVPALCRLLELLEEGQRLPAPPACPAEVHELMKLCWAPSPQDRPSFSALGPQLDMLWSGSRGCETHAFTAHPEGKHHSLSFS
The experiment in a line: JAK3 Inhibition Assay. Particulars: 1 μM poly(Glu)4Tyr, 5 μM ATP, 1 nM JAK3, 25 °C; read-out: JAK3 enzyme inhibition (Ki). The procedure:
as §1, §2, §3

Another experiment has as its target PKA (Homo sapiens, UniProt P17612). The experiment in a line: PKA Inhibition Assay (coupled enzyme assay). Particulars: 50 μM ATP, 80 μM Kemptide, 18 nM PKA, 30 °C. The method, then: Compounds were screened for their ability to inhibit PKA using a standard coupled enzyme assay (Fox et al., Protein Sci, 1998, 7, 2249). Assays were carried out in a mixture of 100 mM HEPES (pH 7.5), 10 mM MgCl2, 25 mM NaCl, 1 mM DTT and 3% DMSO. Final substrate concentrations in the assay were 50 μM ATP (Sigma Chemicals) and 80 μM peptide (Kemptide, American Peptide, Sunnyvale, Calif.). Assays were carried out at 30 ° C. and 18 nM PKA. Final concentrations of the components of the coupled enzyme system were 2.5 mM phosphoenolpyruvate, 300 μM NADH, 30 μg/ml pyruvate kinase and 10 μg/ml lactate dehydrogenase.
An assay stock buffer solution was prepared containing all of the reagents listed above, with the exception of ATP, and the test compound of the present invention. 55 μl of the stock solution was placed in a 96 well plate followed by addition of 2 μl of DMSO stock containing serial dilutions of the test compound of the present invention (typically starting from a final concentration of 5 μM). The plate was preincubated for 10 minutes at 30° C. and the reaction initiated by addition of 5 μl of ATP (final concentration 50 μM). Initial reaction rates were determined with a Molecular Devices SpectraMax Plus plate reader over a 15 minute time course. IC50 and Ki data were calculated from non-linear regression analysis using the Prism software package (GraphPad Prism version 3.0a for Macintosh, GraphPad Software, San Diego, Calif., USA).

Another experiment deals with T2, ROCK (Homo sapiens, UniProt Q13464).
T2 construct: ROCK I (AA 6-553)
In words: ROCK Inhibition Assays. Particulars: read-out: ROCK enzyme inhibition (Ki). The method, then: Compounds are screened for their ability to inhibit ROCK I (AA 6-553) activity using a standard coupled enzyme system (Fox et al. Protein Sci. 7: 2249, 1998). Reactions are carried out in a solution containing 100 mM HEPES (pH 7.5), 10 mM MgCl2, 25 mM NaCl, 2 mM DTT and 1.5% DMSO. Final substrate concentrations in the assay are 45 μM ATP (Sigma Chemicals, St Louis, Mo.) and 200 μM peptide (American Peptide, Sunnyvale, Calif.). Reactions are carried out at 30 ° C. and 45 nM ROCK I. Final concentrations of the components of the coupled enzyme system are 2.5 mM phosphoenolpyruvate, 350 μM NADH, 30 μg/ml pyruvate kinase and 10 μg/ml lactate dehydrogenase.
Compounds are screened for their ability to inhibit ROCK using a standard radioactive enzyme assay. Assays are carried out in a solution containing 100 mM HEPES (pH 7.5), 10 mM MgCl2, 25 mM NaCl, 2 mM DTT and 1.5% DMSO. Final substrate concentrations in the assay are 13 μM [γ-^33P] ATP (25 mCi ^33P ATP/mmol ATP, Perkin Elmer, Cambridge, Mass./Sigma Chemicals, St Louis, Mo.) and 27 μM Myelin Basic Protein (MBP). Final enzyme concentration in the assay is 5 nM ROCK. Assays are carried out at room temperature. 1.5 μl of DMSO stock containing serial dilutions of the compound of the present invention (concentrations ranging from 10 μM to 2.6 nM) is placed in a 96 well plate. 50 μl of Solution 1 (100 mM HEPES (pH 7.5), 10 mM MgCl2, […] [γ-^33P] ATP) is added to the plate. The reaction is initiated by addition of 50 μl of Solution 2 (100 mM HEPES (pH 7.5), 10 mM MgCl2, 4 mM DTT, […] and 10 nM ROCK). After 2 hours the reaction is quenched with 50 μL of 30% trichloroacetic acid (TCA, Fisher) containing 9 mM ATP. Transfer of 140 μL of the quenched reaction to a glass fiber filter plate (Corning, Cat. No.3511) is followed by washing 3 times with 5% TCA. 50 μL of Optima Gold scintillation fluid (Perkin Elmer) is added and the plates are counted on a Top Count (Perkin Elmer). After removing mean background values for all of the data points the data is fit using Prism software to obtain a Ki(app).

Broadly, the Ki is the equilibrium dissociation constant of an inhibitor or competing ligand from its target.

T2 sequence (Q13464 6-553): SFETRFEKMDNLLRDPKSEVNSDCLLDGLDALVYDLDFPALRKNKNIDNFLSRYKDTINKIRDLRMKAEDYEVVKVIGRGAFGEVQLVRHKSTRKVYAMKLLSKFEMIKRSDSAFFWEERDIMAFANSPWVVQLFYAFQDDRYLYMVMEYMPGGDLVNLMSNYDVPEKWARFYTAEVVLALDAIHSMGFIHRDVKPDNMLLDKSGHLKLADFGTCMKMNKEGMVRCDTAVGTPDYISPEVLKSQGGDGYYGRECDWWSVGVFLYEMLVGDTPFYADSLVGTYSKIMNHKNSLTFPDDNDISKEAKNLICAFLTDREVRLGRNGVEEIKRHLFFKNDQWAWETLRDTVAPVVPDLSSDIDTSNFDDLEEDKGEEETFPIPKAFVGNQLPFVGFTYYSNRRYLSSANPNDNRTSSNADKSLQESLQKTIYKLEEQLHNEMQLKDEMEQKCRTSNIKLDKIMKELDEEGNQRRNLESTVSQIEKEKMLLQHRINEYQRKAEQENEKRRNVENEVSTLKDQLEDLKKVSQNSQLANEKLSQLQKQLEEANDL
Chain of JAK2 (O60674 whole entry): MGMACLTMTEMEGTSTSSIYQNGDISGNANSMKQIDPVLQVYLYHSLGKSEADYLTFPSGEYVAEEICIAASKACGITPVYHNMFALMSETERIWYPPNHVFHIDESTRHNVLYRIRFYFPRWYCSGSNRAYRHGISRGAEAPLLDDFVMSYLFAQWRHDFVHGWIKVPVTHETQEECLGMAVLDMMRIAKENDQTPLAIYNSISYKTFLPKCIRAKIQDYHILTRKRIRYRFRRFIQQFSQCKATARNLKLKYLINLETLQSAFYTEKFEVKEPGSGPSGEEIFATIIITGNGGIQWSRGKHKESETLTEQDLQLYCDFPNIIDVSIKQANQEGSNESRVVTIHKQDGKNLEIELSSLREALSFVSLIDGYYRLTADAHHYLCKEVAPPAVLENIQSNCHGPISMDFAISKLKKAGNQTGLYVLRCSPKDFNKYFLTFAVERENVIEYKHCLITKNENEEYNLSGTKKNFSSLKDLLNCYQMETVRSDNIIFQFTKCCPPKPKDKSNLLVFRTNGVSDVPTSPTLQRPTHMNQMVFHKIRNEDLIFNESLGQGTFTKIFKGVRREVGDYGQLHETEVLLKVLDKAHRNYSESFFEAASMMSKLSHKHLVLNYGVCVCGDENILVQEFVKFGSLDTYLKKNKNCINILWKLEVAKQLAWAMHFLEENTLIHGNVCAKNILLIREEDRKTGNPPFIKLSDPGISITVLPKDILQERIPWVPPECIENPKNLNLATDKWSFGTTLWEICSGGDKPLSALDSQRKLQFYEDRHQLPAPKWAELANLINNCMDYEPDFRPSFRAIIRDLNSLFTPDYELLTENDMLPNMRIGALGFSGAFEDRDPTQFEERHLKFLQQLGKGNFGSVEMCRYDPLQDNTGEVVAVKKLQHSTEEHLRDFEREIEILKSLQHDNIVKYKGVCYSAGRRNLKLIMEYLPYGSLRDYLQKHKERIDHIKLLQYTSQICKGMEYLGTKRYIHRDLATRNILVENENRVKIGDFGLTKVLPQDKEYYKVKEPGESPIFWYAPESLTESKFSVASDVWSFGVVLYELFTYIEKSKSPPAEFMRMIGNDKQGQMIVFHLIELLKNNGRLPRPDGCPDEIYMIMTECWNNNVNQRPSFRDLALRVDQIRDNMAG

On to `C1=C(c2ncnc3[nH]ccc23)CCCCC1` [Compound 20], for which the Ki was less than 0.5 µM on JAK2, less than 0.5 µM at JAK3, 0.5 to 5 µM at PKA and 0.5 to 5 µM at ROCK.

Consider `C1=C(c2ncnc3[nH]ccc23)C2CCC1C2` (stereo not drawn) [Compound 21], for which the Ki at JAK2 was less than 0.5 µM; at JAK3, less than 0.5 µM; at PKA, 0.5 to 5 µM; on ROCK it was 0.5 to 5 µM.

On to `C=C(c1ncnc2[nH]ccc12)C1CCCN(C(=O)OC(C)(C)C)C1` (stereo not drawn) [Compound 22], for which the Ki at JAK2, at JAK3, on PKA and at ROCK was 0.5 to 5 µM throughout.

Consider `CC(c1ccccc1)c1ncnc2[nH]ccc12` (stereo not drawn) [Compound 23], for which the Ki at JAK2, at JAK3, on PKA and at ROCK was 0.5 to 5 µM in each case.

On to `COC(=O)C(C)Cc1ncnc2[nH]ccc12` (stereo not drawn) [Compound 24], for which the Ki on JAK2 was greater than 5 µM; at JAK3, greater than 5 µM; on PKA, 0.5 to 5 µM; at ROCK it was 0.5 to 5 µM.

Take `CC(C)Cc1ncnc2[nH]ccc12` [Compound 25]: the Ki on JAK2, at JAK3, on PKA and on ROCK was 0.5 to 5 µM in each case.

Consider `c1nc(C2CC3CCC2C3)c2cc[nH]c2n1` (stereo not drawn) [Compound 26, 4-Bicyclo[2.2.1]hept-2-yl-7H-pyrrolo[2,3-d]pyrimidine], for which the Ki at JAK2 was less than 0.5 µM; on JAK3, less than 0.5 µM; at PKA, 0.5 to 5 µM; on ROCK, 0.5 to 5 µM.

Turning to `c1nc(CC2CCCCC2)c2cc[nH]c2n1` [Compound 27], the Ki at JAK2 was less than 0.5 µM; at JAK3, less than 0.5 µM; at PKA it was 0.5 to 5 µM; at ROCK, 0.5 to 5 µM.

With `N#CCCCCc1ncnc2[nH]ccc12` [Compound 28], the Ki on JAK2, on JAK3, on PKA and on ROCK was 0.5 to 5 µM each time.

On to `c1nc(CCC2OCCCO2)c2cc[nH]c2n1` [Compound 29], for which the Ki at JAK2, on JAK3, on PKA and at ROCK was 0.5 to 5 µM throughout.

For the compound `CC(C)(C#N)CCCCc1ncnc2[nH]ccc12` [Compound 30], the Ki at JAK2, on JAK3, on PKA and on ROCK was 0.5 to 5 µM throughout.

As for `CC(C)CCc1ncnc2[nH]ccc12` [Compound 31], the Ki at JAK2 was less than 0.5 µM; at JAK3, less than 0.5 µM; on PKA, 0.5 to 5 µM; at ROCK, 0.5 to 5 µM.

(Values after patent US8633205B2, “Substituted pyrrolo[2,3-d]pyrimidines as inhibitors of protein kinases” (Vertex Pharmaceuticals Incorporated, priority 2005, dated 2014).)
